Measurements as given in US7348034B2, “Plant based formulations for improving skin moisture, texture, and appearance” (Access Business Group International LLC, priority 2005, dated 2008).

Legend:
[1] = test system: Hs27 human fibroblast / HEK human keratinocyte co-cultures; experiment: Pro-collagen synthesis in fibroblast/keratinocyte co-cultures (ELISA); type: cell-based; set-up: key: a “+” sign indicates an increase in synthesis; ++: multiple “+” signs indicating a higher increase in synthesis; +++: multiple “+” signs indicating a higher increase in synthesis; ++++: multiple “+” signs indicating a higher increase in synthesis; a “−” sign indicates decrease in synthesis; −−: multiple “−”signs indicating a higher decrease in synthesis; settings: 10 mg/ml, overnight, pro-collagen in supernatant
Protocol: Hs27, a human fibroblast cell culture and HEK, a human keratinocyte cell culture, were established in 24 well plates. The cells were exposed to various ingredients used in formulations of the present invention at concentrations of 10 mg/ml. The co-cultures were then incubated overnight. The following day, supernatants were collected. The supernatants were analyzed for the presence of pro-collagen, a soluble precursor of collagen formed by fibroblasts in the process of collagen synthesis. Pro-collagen synthesis was assayed using commercially available ELISA kits. See […], Falabella A, Ochoa S, Zhou […]. “Dermal fibroblasts from venous ulcers are unresponsive to the action of transforming growth factor-beta 1.” J Dermatol Sci. 1997. 16(1):59-66.

[2] = test system: Human HEK001 cells; experiment: Lipid synthesis, Oil Red O staining; type: cell-based; set-up: key to Lipids: a “+” sign indicates an increase in synthesis; ++: multiple “+” signs indicating a higher increase in synthesis; +++: multiple “+” signs indicating a higher increase in synthesis; ++++: multiple “+” signs indicating a higher increase in synthesis; a “−” sign indicates decrease in synthesis; −−: multiple “−”signs indicating a higher decrease in synthesis; settings: 0.005%, overnight; for Lipids: 0.05%, and 0.5% in media, Oil Red O OD 515 nm
Protocol: Human HEK001 cells were plated at 2×10^4/well in 96 well plates and were incubated overnight. The following day, the cells were exposed to: glycine, Cherokee rose hips, grape seed extract, Wolfberry extract, Pickled Ume, Ascorbic acid, Chinese Angelica extract, royal jelly, and α-tocopherol, which were diluted into cell culture media at concentrations of 0.005%, 0.05%, and 0.5%. The cells were then again incubated overnight. The following day, the cells were fixed in 1% formaldehyde. Cellular lipids were then stained with Oil Red O® stain. See Ramirez J L, Castro-Munnozledo F, Kuri-Harusch W. 1992. “Quantitation of adipose conversion and triglycerides by staining intracytoplasmic lipids with Oil Red O.” Histochemistry. 97:493-497. Following staining, the lipid bound stain was extracted with isopropanol. The OD of the extracted stain was read at 515 nm.

[3] = test system: mouse keratinocytes; settings: mouse keratinocytes in vitro; cited from earlier work
[4] = test system: Hs27 human fibroblast / HEK human keratinocyte co-cultures; experiment: Elastin synthesis in fibroblast/keratinocyte co-cultures (Fastin Elastin kit); type: cell-based; set-up: key: a “+” sign indicates an increase in synthesis; ++: multiple “+” signs indicating a higher increase in synthesis; +++: multiple “+” signs indicating a higher increase in synthesis; ++++: multiple “+” signs indicating a higher increase in synthesis; a “−” sign indicates decrease in synthesis; −−: multiple “−”signs indicating a higher decrease in synthesis; settings: 10 mg/ml, overnight, elastin in supernatant
Protocol: Hs27, a human fibroblast cell culture and HEK, a human keratinocyte cell culture, were established in 24 well plates. The cells were exposed to various ingredients of the formulations of the present invention at concentrations of 10 mg/ml. The co-cultures were then incubated overnight. The following day supernatants were collected. The supernatants were analyzed for the presence of elastin using the Fastin Elastin® kit from Biocolor. Liao […]. 2004. “Relationship between collagen fibrils, glycosaminoglycans, and stress relaxation in mitral valve chordae […].” Ann. Biomed. Eng. 32(7):977-983.

[5] = molecular target: T1, MMP-1 (Homo sapiens, UniProt P03956); experiment: MMP-1 enzyme activity (Amersham kit); type: biochemical; set-up: key: a “+” sign indicates an increase in synthesis; ++: multiple “+” signs indicating a higher increase in synthesis; +++: multiple “+” signs indicating a higher increase in synthesis; ++++: multiple “+” signs indicating a higher increase in synthesis; a “−” sign indicates decrease in synthesis; −−: multiple “−”signs indicating a higher decrease in synthesis; settings: samples diluted to 100 μg/ml
T1 construct: purchased Amersham
T1 sequence (P03956 100-469): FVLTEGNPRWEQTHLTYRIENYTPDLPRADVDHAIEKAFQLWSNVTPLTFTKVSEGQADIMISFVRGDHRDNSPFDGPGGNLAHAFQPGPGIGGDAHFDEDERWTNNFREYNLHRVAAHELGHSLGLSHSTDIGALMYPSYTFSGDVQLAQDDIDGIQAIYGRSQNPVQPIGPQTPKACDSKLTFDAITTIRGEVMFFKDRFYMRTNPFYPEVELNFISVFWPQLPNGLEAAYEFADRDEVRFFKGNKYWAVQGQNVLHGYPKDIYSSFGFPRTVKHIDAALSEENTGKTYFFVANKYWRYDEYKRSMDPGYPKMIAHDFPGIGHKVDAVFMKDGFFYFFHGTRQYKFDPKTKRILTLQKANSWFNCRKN
Source text: (§1) Commercially available kits were used for testing the effect of various ingredients used in the formulations of the present invention on the activity of the MMP-1, MMP-9, and elastase. Gould L J, Yager D R, McGeehan G M, Diegelmann R F. 1999. “Method to analyze collagenase and gelatinase activity by fibroblasts in culture.” In Vitro Cell. Dev. Biol. Anim. 35(2):75-79. For MMP-1, a kit from Amersham® was used according to the manufacturer's specifications. For MMP-9 and Elastase, kits from Molecular Probes® were used. The samples were prepared in stock solvent at stock concentrations of 100 mg/ml. The samples were diluted to 100 μg/ml using PBS.

[6] = test system: MMP-9; experiment: MMP-9 enzyme activity (Molecular Probes kit); type: biochemical; set-up: key: a “+” sign indicates an increase in synthesis; ++: multiple “+” signs indicating a higher increase in synthesis; +++: multiple “+” signs indicating a higher increase in synthesis; ++++: multiple “+” signs indicating a higher increase in synthesis; a “−” sign indicates decrease in synthesis; −−: multiple “−”signs indicating a higher decrease in synthesis; settings: samples diluted to 100 μg/ml
Source text: as §1

[7] = molecular target: T2, Elastase (Sus scrofa, UniProt P00772); experiment: Elastase enzyme activity (Molecular Probes kit); type: biochemical; set-up: key: a “+” sign indicates an increase in synthesis; ++: multiple “+” signs indicating a higher increase in synthesis; +++: multiple “+” signs indicating a higher increase in synthesis; ++++: multiple “+” signs indicating a higher increase in synthesis; a “−” sign indicates decrease in synthesis; −−: multiple “−”signs indicating a higher decrease in synthesis; settings: samples diluted to 100 μg/ml
T2 construct: purchased Molecular Probes
Source text: as §1

[8] = test system: humans; settings: supplementation with high doses; cited from earlier work
[9] = daily consumption of tomato paste over ten weeks; cited from earlier work

T2 sequence (P00772 27-266): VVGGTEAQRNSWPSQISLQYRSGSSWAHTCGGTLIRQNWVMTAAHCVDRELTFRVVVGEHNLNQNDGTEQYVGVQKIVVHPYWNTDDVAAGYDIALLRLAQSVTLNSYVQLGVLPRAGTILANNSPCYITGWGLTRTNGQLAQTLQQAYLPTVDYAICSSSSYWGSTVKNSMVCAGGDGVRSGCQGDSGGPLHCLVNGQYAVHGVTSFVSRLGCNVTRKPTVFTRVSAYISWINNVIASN

SMILES | Collagen [1] | Lipids [2] | Elastin [4] | other results
O=C1O[C@H]([C@@H](O)CO)C(O)=C1O [Ascorbic acid] | ++++ | − | + | UVB-induced oxidative damage [3]: shown to reduce UVB-induced oxidative damage in mouse
Cc1c(C)c2c(c(C)c1O)CC[C@@](C)(CCC[C@H](C)CCC[C@H](C)CCCC(C)C)O2 [α-tocopherol] | − | + | − | MMP-1 [5]: −; induction of lipid synthesis ([2]; 0.05%, and 0.5%, Oil Red O): demonstrated the ability to induce lipid synthesis; MMP-9 [6]: −; Elastase [7]: −
CC1=C(/C=C/C(C)=C/C=C/C(C)=C/C=C/C=C(C)/C=C/C=C(C)/C=C/C2=C(C)CCCC2(C)C)C(C)(C)CCC1 [beta-carotene] |  |  |  | protection against UV-induced erythema [8]: with high doses of beta-carotene protects against UV-induced
CC(C)=CCC/C(C)=C/C=C/C(C)=C/C=C/C(C)=C/C=C/C=C(C)/C=C/C=C(C)/C=C/C=C(\C)CCC=C(C)C [Lycopene] |  |  |  | protection against erythema formation following UV-irradiation [9]: a period of ten weeks provides protection against erythema formation
NCC(=O)O [Glycine] | + | − | − | 
